Where two headings read alike, the source gives them in different places.

One series relates to CCL6 cells. In words: Cytotoxicity of derivatives on CCL6 cell line (Alamar Blue assay, ID50). The class given is cell-based. On the procedure: The cytotoxicity activity of the derivatives was evaluated on CCL6 cell line. The cells were maintained in RPMI 1640 supplemented with fetal calf serum 10% at 37° C., under a 5% CO2 atmosphere. Cells were plated at 2500 cells per well in 96 well plates. Drugs or derivatives were added 24 hours later. After three days of incubation with drugs or derivatives, 10 μl of Alamar Blue were added to the medium. The Alamar assay was performed as described by Pagé et al. (Pagé, B., et al., Int. J. Oncol., 3, 473-476, 1993), and the ID50 was calculated.
(The colour change of resazurin is a common sign of viable cells or microbes.)

The conditions of series [1]: Chloroform extraction (chloroform-water), mixed one hour, HPLC.
Where [2] appears, read: Ratio ID50 of derivative/ID50 of paclitaxel, CCL6 cells, three days of incubation, Alamar Blue.

For the compound `CC(=O)O[C@H]1C(=O)[C@@]2(C)[C@H]([C@H](OC(=O)c3ccccc3)[C@]3(O)C[C@H](OC(=O)[C@H](O)[C@@H](NC(=O)c4ccccc4)c4ccccc4)C(C)=C1C3(C)C)[C@]1(OC(C)=O)CO[C@@H]1C[C@@H]2O` [paclitaxel, reference compound], the “relative ID* CCL6” value in the series on CCL6 cells (setting [2]) turned out to be 1.
Same read-out and setting: in the case of “2′-[N-(aminohexyl)-amidohexanoic acid]paclitaxel ester [Taxamine 5]” it was 13.
For the compound `CC(=O)OC1C(=O)C2(C)C(O)CC3OCC3(OC(C)=O)C2C(OC(=O)c2ccccc2)C2(O)CC(OC(=O)C(OC(=O)CCCCC(=O)NCCN)C(NC(=O)c3ccccc3)c3ccccc3)C(C)=C1C2(C)C` (centres unmarked) [Taxamine 1, 2′-[N-(aminoethyl)-amidohexanoic acid]-paclitaxel ester], in the series on CCL6 cells (setting [2]), the “relative ID* CCL6” value is 24. Moreover, the Organic phase/aqueous phase in series [1] came to 151.
For the compound `CC(=O)OC1C(=O)C2(C)C(O)CC3OCC3(OC(C)=O)C2C(OC(=O)c2ccccc2)C2(O)CC(OC(=O)C(OC(=O)CCCCCCCCC(=O)O)C(NC(=O)c3ccccc3)c3ccccc3)C(C)=C1C2(C)C` (centres unmarked) [Product 5, 2′-(decanedioic acid)-paclitaxel monoester], the “relative ID* CCL6” value in the series on CCL6 cells came out at 20.

The record behind these values is patent publication US6391913B1 (priority 1998, dated 2002).
